Laboratory results: US20180203025A1, “HDL THERAPY MARKERS” (Cerenis Therapeutics Holding SA, priority 2014, published 2018)

What was measured:
[1] = test system: ABCA1 mRNA in mouse macrophages (J774); test: ABCA1 gene expression (real-time PCR) in J774 macrophages; type: cell-based
Description: Use the same amount of cDNA for all samples (4 μl of 20 μL RT reaction on 0.5 or 1 μg RNA). For each sample (to be run in triplicate), sample the following into a nuclease-free 1.5-mL microcentrifuge tube (add the volume for 2 samples more to calculate the final volume of PCR reaction mix): 2× TaqMan® Gene Expression Master Mix: 10 μl; 20× TaqMan® Gene Expression Assay: 1 μl; Nuclease free H2O: 5 μl. Cap the tube and invert it several times to mix the reaction components. Centrifuge the tube briefly.
J774 were seeded on 6× well plates (300,000 cells/well) and loaded with oxidized-LDL without the use of ^3H-cholesterol. […] Gene expression was assayed using the protocols described in Sections 8.3.2 (RNA extraction); 8.3.4 (reverse transcription), and 8.3.5 (qPCR). ABCA1 gene expression was determined with Taqman probe Mm00442646.m1 according to the manufacturer's protocol. The reference gene used is HPRT1 (Taqman probe: Mm00446968.m1).
(§1) J774 were seeded on 6 well plates (300,000 cells/well) and loaded with oxidized-LDL. […] Gene expression was assayed using the protocols described in Sections 8.3.2 (RNA extraction); 8.3.4 (reverse transcription), and 8.3.5 (qPCR). SR-BI gene (Taqman probe Mm00450234.m1), ABCG1 (Taqman probe Mm00437390.m1), SREBP1 (Taqman probe Mm01138344.m1) and ABCA1 (Taqman probe Mm00442646.m1) expression were determined according to the manufacturer's protocol. The reference gene used is HPRT1 (Taqman probe: Mm00446968.m1).
This study examined the kinetics of decreasing the mRNA level of ABCA1 in J774 macrophages. J774 were seeded on 6 well plates (300,000 cells/well) and loaded with oxidized-LDL. […] Gene expression was assayed using the protocols described in Sections 8.3.2 (RNA extraction); 8.3.4 (reverse transcription), and 8.3.5 (qPCR). ABCA1 (Taqman probe Mm00442646.m1) expression was determined according to the manufacturer's protocol. The reference gene used is HPRT1 (Taqman probe: Mm00446968.m1).
(§2) J774 were seeded on 6 well plates (300,000 cells/well) and loaded with oxidized-LDL. […] Gene expression was assayed using the protocols described in Sections 8.3.2 (RNA extraction); 8.3.4 (reverse transcription), and 8.3.5 (qPCR). ABCG1 (Taqman probe Mm00437390.m1) and ABCA1 (Taqman probe Mm00442646.m1) expression were determined according to the manufacturer's protocol. The reference gene used is HPRT1 (Taqman probe: Mm00446968.m1).
as §2
(§3) J774 were seeded on 6 well plates (600,000 cells/well) in DMEM 10% FCS. […] Medium was removed and the macrophages were washed with DMEM. […] Gene expression was assayed using the protocols described in Sections 8.3.2 (RNA extraction); 8.3.4 (reverse transcription), and 8.3.5 (qPCR). ABCG1 (Taqman probe Mm00437390.m1), ABCA1 (Taqman probe Mm00442646.m1) and SR-BI (Taqman probe Mm00450234.m1) expression were determined according to the manufacturer's protocol. The reference gene used is HPRT1 (Taqman probe: Mm00446968.m1).
(§4) J774 were seeded on 6 well plates (300,000 cells/well) in DMEM 2.5% FCS. […] The next day, medium was replaced by fresh DMEM supplemented with or without ApoA-I (25 or 250 μg/mL) to initiate ApoA-I cholesterol efflux for 2 hours. The experiment was stopped at different time points: 1) J774 stopped before addition of ApoA-I, 2) J774+DMEM (passive efflux for 2 hours), 3) J774+ApoA-I (25 μg/mL) for 2 hours and 4) J774+ApoA-I (250 μg/mL) for 2 hours. The RNA was extracted with the RiboPure™ kit according to the manufacturer's protocol.

[2] = test system: ABCG1 mRNA in mouse macrophages (J774); test: ABCG1 gene expression (real-time PCR) in J774 macrophages; type: cell-based
Description: J774 were seeded on 6 well plates (300,000 cells/well) and loaded with oxidized-LDL without the use of ^3H-cholesterol. […] Gene expression was assayed using the protocols described in Sections 8.3.2 (RNA extraction); 8.3.4 (reverse transcription), and 8.3.5 (qPCR). ABCG1 gene expression was determined with Taqman probe Mm00437390.m1 according to the manufacturer's protocol. The reference gene used is HPRT1 (Taqman probe: Mm00446968.m1).
as §1, §2, §2, §3
as §4, with “protocol. Gene expression was assayed using the protocols described in Sections 8.3.2 (RNA extraction); 8.3.4 (reverse transcription), and 8.3.5 (qPCR). ABCA1 (Taqman probe Mm00442646.m1), ABCG1 (Taqman probe Mm00437390.m1), and SR-BI (Taqman probe Mm00450234.m1) expression were determined according to the manufacturer's protocol. The reference gene used is HPRT1 (Taqman probe: Mm00446968.m1).” for “protocol.”
This study examined the effect of HDL2 on ABCA1, ABCG1 and SR-BI mRNA levels in mouse macrophages. […] J774 were seeded on 6 well plates (300,000 cells/well) and loaded with oxidized-LDL. HDL2 (from 2.5 to 1000 μg/mL) were added for 6 hours on the macrophages and the RNA were extracted with the RiboPure™ kit according to the manufacturer's protocol. Gene expression was assayed using the protocols described in Sections 8.3.2 (RNA extraction); 8.3.4 (reverse transcription), and 8.3.5 (qPCR). ABCA1 (Taqman probe Mm00442646.m1), ABCG1 (Taqman probe Mm00437390.m1) and SR-BI (Taqman probe Mm00450234.m1) gene expression were determined according to the manufacturer protocols.

[3] = Study O, 0.03 to 30 mM, 6 hours
[4] = Study G, 250 μg/mL, 6 hours, without cAMP
[5] = Study G, overnight cAMP 300 μM, then 250 μg/mL 6 hours
[6] = Study I, 6 hours, presence or absence of cAMP
[7] = Study J, 24 hours treatment, 250 μg/mL
[8] = Study J, after 24 hours at 250 μg/mL

Molecule | ABCA1 mRNA level [1, 3] | ABCG1 mRNA level [2, 3] | ABCA1 mRNA expression ([1]; Study A, oxidized-LDL loaded, 25, 250 and 1000 μg/mL, 6 hours) | dose for diminishing half of the ABCA1 level ([1]; Study E, 6 hours) | time to decrease half of the ABCA1 mRNA level ([1]; Study F, 25 or 250 μg/mL) | ABCA1 mRNA level [1, 4] | ABCA1 mRNA level (RQ) [1, 5] | effect of cAMP activation on CER-001 dose decreasing ABCA1 ([1]; Study I) | dose of maximum decrease of ABCA1 mRNA level ([1]; Study I, 6 hours) | doses at which decrease of ABCA1 mRNA level was observed [1, 6] | ABCA1 mRNA level [1, 7] | time for ABCA1 mRNA level to return to baseline after removal [1, 8] | ABCA1 mRNA level ([1]; Study L, overnight pre-incubation at 250 μg/mL) | ABCG1 mRNA expression ([2]; Study B, oxidized-LDL loaded, 25, 250 and 1000 μg/mL, 6 hours) | ABCG1 mRNA level [2, 4] | ABCG1 mRNA level (RQ) [2, 5] | dose of maximum decrease of ABCG1 mRNA level ([2]; Study I, 6 hours) | doses at which decrease of ABCG1 mRNA level was observed [2, 6] | ABCG1 mRNA level [2, 7] | time for ABCG1 mRNA level to return to baseline after removal [2, 8]
OC[C@H]1O[C@@H]2O[C@H]3[C@H](O)[C@@H](O)[C@@H](O[C@H]4[C@H](O)[C@@H](O)[C@@H](O[C@H]5[C@H](O)[C@@H](O)[C@@H](O[C@H]6[C@H](O)[C@@H](O)[C@@H](O[C@H]7[C@H](O)[C@@H](O)[C@@H](O[C@H]8[C@H](O)[C@@H](O)[C@@H](O[C@H]1[C@H](O)[C@H]2O)O[C@@H]8CO)O[C@@H]7CO)O[C@@H]6CO)O[C@@H]5CO)O[C@@H]4CO)O[C@@H]3CO [β-cyclodextrin, reference compound] | dose-dependent decrease | dose-dependent decrease |  |  |  |  |  |  |  |  |  |  |  |  |  |  |  |  |  | 
CER-001: engineered recombinant human apolipoprotein A-I HDL with sphingomyelin and DPPG; protein-to-phospholipid ratio 1:2.7, 97% Sph and 3% DPPG |  |  | decreased the ABCA1 mRNA at all the doses | around 7.5 μg/mL | 4 h | decreased | 1 | did not change the sufficient dose of CER-001 | around 15 μg/mL | 4 to 6 µg/mL | decrease | more than 8 hours | strongly decreased the ABCA1 mRNA level | decreased the ABCG1 mRNA at all the doses | decreased | 1 | around 15 μg/mL | 4 to 6 µg/mL | decrease | 8 h
